Test results published in patent US12570671B2 (BRISTOL-MYERS SQUIBB COMPANY, priority 2020, dated 2026).

Columns and labels:
Ikaros = Ikaros (Homo sapiens, UniProt Q13422+Q96SW2); assay: Helios Cellular Degradation Assay (Ikaros readout); type: cell-based; design: endogenous in cells; host or cells: Jurkat; conditions: Jurkat cells, 72 h incubation, Ikaros-Alexa488 antibody staining, flow cytometry; read-out: Ikaros Jurkat IC50
Protocol: (§1) Jurkat cells were plated at 80,000 cells/well in 40 μL RPMI+10% FBS in a 384 well cell culture plate prior to using acoustic dispensing technology for adding compound of interest. Cell cultures were incubated for 72 h at 37° C. and 5% C02. In order to facilitate analysis, cell cultures were spun down at 200 rpm for 5 min and the supernatant was discarded. After shaking the plate to dislodge the cell pellet, cells were resuspended in 50 μL of Fixation Buffer (eBioScience FoxP3 buffer set 00-5523-00) for 60 min at room temperature. After centrifuging and discarding the supernatant, cells were permeabilized with 50 μL of Permeabilization buffer (eBioScience FoxP3 buffer set 00-5523-00) for 10 min at room temperature. Following permeabilization, cells were spun down and the supernatant was replaced with 20 μL fluorescently labelled antibodies against Helios, Ikaros and Aiolos or corresponding Isotype controls in 1× Permeabilization buffer (Ikaros-Alexa488 [Biolegend, Cat #368408, 1:50], Helios-PE [CST, Cat #29360, 1:50], Aiolos-Alexa647 [Biolegend, Cat #371106Biolegend, 1:25]) and staining reactions were incubated for 1 h at room temperature; protected from light. Subsequently, 30 μL of 1× Permeabilization buffer was added prior to centrifuging the cells and discarding the supernatant. Stained cells were resuspended in 25 μL of flow cytometry staining buffer (PBS+0.2% BSA) and analyzed using an Intellicyt Ique Plus flow cytometer.

Helios = Helios (Homo sapiens, UniProt Q96SW2+Q9UKS7); assay: Helios Cellular Degradation Assay (Helios readout); type: cell-based; design: endogenous in cells; host or cells: Jurkat; conditions: Jurkat cells, 72 h incubation, Helios-PE antibody staining, flow cytometry; read-out: Helios Jurkat IC50
Protocol: as §1

Ikaros, sequence (Q13422 whole entry): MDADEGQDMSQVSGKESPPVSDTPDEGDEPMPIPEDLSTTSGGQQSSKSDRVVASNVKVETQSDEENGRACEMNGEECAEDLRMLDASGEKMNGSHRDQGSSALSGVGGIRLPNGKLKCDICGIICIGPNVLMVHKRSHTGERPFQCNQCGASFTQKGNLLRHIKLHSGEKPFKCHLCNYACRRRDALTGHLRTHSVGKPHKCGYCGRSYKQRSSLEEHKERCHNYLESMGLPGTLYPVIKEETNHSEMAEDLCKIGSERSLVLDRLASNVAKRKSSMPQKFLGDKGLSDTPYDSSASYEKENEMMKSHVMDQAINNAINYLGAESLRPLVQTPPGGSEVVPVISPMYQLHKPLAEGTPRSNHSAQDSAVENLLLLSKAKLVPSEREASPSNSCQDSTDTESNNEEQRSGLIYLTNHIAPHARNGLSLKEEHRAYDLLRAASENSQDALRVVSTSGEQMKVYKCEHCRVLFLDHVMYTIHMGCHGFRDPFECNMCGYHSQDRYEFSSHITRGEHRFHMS
Ikaros, sequence (Q96SW2 whole entry): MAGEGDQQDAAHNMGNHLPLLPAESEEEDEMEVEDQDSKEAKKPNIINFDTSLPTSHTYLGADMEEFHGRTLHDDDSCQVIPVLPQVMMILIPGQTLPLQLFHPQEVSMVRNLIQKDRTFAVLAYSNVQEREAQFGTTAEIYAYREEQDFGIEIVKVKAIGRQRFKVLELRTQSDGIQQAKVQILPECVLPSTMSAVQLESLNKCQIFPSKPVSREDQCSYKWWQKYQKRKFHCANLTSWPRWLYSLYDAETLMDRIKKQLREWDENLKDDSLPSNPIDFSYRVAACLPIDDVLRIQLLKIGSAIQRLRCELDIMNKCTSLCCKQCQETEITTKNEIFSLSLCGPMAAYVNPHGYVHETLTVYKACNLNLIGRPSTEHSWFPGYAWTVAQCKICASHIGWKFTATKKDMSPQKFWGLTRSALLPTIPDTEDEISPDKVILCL
Ikaros, sequence (Q16531 whole entry partner): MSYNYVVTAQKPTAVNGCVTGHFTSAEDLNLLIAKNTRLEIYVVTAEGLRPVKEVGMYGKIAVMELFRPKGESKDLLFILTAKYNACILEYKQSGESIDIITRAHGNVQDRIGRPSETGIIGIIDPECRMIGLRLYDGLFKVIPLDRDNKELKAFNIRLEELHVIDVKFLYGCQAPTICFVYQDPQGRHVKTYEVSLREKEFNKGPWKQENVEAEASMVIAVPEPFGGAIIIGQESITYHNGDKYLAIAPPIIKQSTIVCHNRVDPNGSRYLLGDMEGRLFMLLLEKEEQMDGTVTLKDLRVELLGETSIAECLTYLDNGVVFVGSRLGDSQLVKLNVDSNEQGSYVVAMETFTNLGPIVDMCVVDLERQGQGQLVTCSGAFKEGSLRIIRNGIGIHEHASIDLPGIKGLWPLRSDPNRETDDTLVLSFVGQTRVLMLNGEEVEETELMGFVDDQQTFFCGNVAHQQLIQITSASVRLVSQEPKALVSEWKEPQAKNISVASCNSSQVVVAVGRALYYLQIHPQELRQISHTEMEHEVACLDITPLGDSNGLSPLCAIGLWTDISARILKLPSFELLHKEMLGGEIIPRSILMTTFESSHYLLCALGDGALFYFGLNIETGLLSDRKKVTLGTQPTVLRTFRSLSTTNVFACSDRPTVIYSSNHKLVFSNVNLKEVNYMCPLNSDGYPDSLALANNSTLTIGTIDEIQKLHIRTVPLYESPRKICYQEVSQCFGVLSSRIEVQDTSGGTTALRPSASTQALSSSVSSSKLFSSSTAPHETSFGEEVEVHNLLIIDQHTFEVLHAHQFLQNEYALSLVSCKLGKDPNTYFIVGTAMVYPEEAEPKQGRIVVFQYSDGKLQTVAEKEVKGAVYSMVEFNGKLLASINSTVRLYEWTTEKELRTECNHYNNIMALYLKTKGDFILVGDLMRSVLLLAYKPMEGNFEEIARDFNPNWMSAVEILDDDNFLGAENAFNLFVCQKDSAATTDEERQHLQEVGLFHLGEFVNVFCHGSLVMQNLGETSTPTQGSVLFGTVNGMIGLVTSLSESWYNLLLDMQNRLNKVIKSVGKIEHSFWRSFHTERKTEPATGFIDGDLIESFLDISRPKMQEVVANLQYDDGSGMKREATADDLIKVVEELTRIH
Helios, sequence (Q9UKS7 whole entry): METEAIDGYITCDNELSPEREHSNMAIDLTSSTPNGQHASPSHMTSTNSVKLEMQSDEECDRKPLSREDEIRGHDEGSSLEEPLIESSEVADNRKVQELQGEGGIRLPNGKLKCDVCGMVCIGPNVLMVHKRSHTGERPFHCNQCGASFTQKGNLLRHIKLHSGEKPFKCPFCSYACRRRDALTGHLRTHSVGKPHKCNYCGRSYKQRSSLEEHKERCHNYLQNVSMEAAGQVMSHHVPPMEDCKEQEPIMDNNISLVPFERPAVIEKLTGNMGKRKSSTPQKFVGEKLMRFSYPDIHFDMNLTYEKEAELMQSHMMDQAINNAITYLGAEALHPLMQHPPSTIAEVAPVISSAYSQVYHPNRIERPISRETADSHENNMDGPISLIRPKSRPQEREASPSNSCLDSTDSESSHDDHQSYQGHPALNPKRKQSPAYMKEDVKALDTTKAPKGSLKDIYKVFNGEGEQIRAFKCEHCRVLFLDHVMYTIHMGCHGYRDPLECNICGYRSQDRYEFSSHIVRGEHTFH
Helios, sequence (Q96SW2 whole entry): as the sequence (Q96SW2 whole entry) above
Helios, sequence (Q16531 whole entry partner): as the sequence (Q16531 whole entry partner) above

Compound | DC50 (Ikaros) [nM] | DC50 (Helios) [nM]
Nc1c(-c2ccc3c(c2)CN(C2CCC(=O)NC2=O)C3=O)ncc2ccccc12 (stereo not drawn) [Example 2, 3-(5-(4-Aminoisoquinolin-3-yl)-1-oxoisoindolin-2-yl)piperidine-2,6-dione] | 13700 | 370
N#Cc1cc(C2CC2)c(-c2ccc3c(c2)CN(C2CCC(=O)NC2=O)C3=O)nc1N (stereo not drawn) [Example 183, 2-amino-5-cyclopropyl-6-(2-(2,6-dioxopiperidin-3-yl)-1-oxoisoindolin-5-yl) nicotinonitrile] | ≥ 10000 | 50
O=C1CCC(N2Cc3cc(-c4nc5ccccc5nc4O)ccc3C2=O)C(=O)N1 (stereo not drawn) [Example 96, 3-(5-(3-hydroxyquinoxalin-2-yl)-1-oxoisoindolin-2-yl)piperidine-2,6-dione] | ≥ 20000 | 200
NC(=O)c1nc(-c2ccc3c(c2)CN([C@H]2CCC(=O)NC2=O)C3=O)cc2ccccc12 [Example 126, 3-{2-[(3S)-2,6-dioxopiperidin-3-yl]-1-oxo-2,3-dihydro-1H-isoindol-5-yl}isoquinoline-1-carboxamide] | ≥ 20000 | 2990
N#Cc1c(C(F)F)cc(N)nc1-c1ccc2c(c1)CN(C1CCC(=O)NC1=O)C2=O (stereo not drawn) [Example 174, 6-amino-4-(difluoromethyl)-2-(2-(2,6-dioxopiperidin-3-yl)-1-oxoisoindolin-5-yl) nicotinonitrile] |  | 350
O=C1CCC(N2Cc3cc(-c4nc5ccccc5nc4C4CC4)ccc3C2=O)C(=O)N1 (stereo not drawn) [Example 97, 3-(5-(3-cyclopropylquinoxalin-2-yl)-1-oxoisoindolin-2-yl)piperidine-2,6-dione] |  | 90
N#Cc1cc2ccccc2c(-c2ccc3c(c2)CN(C2CCC(=O)NC2=O)C3=O)n1 (stereo not drawn) [Example 59, 1-[2-(2,6-dioxopiperidin-3-yl)-1-oxo-2,3-dihydro-1H-isoindol-5-yl]isoquinoline-3-carbonitrile] |  | 24

The next lines start with the values.

DC50 (Ikaros) [nM] | DC50 (Helios) [nM] | Compound
≥ 20000 | 1350 | Nc1cncc(-c2ccc3c(c2)CN(C2CCC(=O)NC2=O)C3=O)n1 (stereo not drawn) [Example 142, 3-(5-(6-aminopyrazin-2-yl)-1-oxoisoindolin-2-yl)piperidine-2,6-dione]
≥ 20000 | 20 | COc1ccc(N)nc1-c1ccc2c(c1)CN(C1CCC(=O)NC1=O)C2=O (stereo not drawn) [Example 106, 3-(5-(6-amino-3-methoxypyridin-2-yl)-1-oxoisoindolin-2-yl)piperidine-2,6-dione]
> 20000 | 98 | Nc1nc(-c2ccc3c(c2)CN(C2CCC(=O)NC2=O)C3=O)nc2nc[nH]c12 (stereo not drawn) [Example 44, 3-[5-(6-amino-7H-purin-2-yl)-1-oxo-2,3-dihydro-1H-isoindol-2-yl]piperidine-2,6-dione]
 | 7 | CNc1nc(-c2ccc3c(c2)CN(C2CCC(=O)NC2=O)C3=O)cc2c1ncn2C (stereo not drawn) [Example 61, 3-{5-[1-methyl-4-(methylamino)-1H-imidazo[4,5-c]pyridin-6-yl]-1-oxo-2,3-dihydro-1H-isoindol-2-yl}piperidine-2,6-dione]
 | 3 | CC(C)(C)Cn1ccc(=O)c2c(N)nc(-c3ccc4c(c3)CN(C3CCC(=O)NC3=O)C4=O)cc21 (stereo not drawn) [Example 46, 3-{5-[5-Amino-1-(2,2-dimethylpropyl)-4-oxo-1,4-dihydro-1,6-naphthyridin-7-yl]-1-oxo-2,3-dihydro-1H-isoindol-2-yl}piperidine-2,6-dione]
 | 30 | CCCc1cc(-c2ccc3c(c2)CN(C2CCC(=O)NC2=O)C3=O)nc(N)c1C#N (stereo not drawn) [Example 172, 2-amino-6-(2-(2,6-dioxopiperidin-3-yl)-1-oxoisoindolin-5-yl)-4-propylnicotinonitrile]
 | 40 | N#Cc1c(C(F)(F)F)cc(-c2ccc3c(c2)CN(C2CCC(=O)NC2=O)C3=O)nc1N (stereo not drawn) [Example 177, 2-amino-6-(2-(2,6-dioxopiperidin-3-yl)-1-oxoisoindolin-5-yl)-4-(trifluoromethyl)nicotine-nitrile]
